According to article PMC8746705, “Comparison of Experimental Strategies to Study L-Type Amino Acid Transporter 1 (LAT1) Utilization by Ligands” (Molecules, 2021):
Like-named read-outs stand apart in the source and are kept apart here.

Key:
[1] = biological target: T1, LAT1 (Mus musculus, UniProt Q9Z127); experiment: Cis-inhibition of radiolabelled LAT1-probe substrate uptake into BV2 cells; assay type: cell-based; conditions: 5 min, mean ± SD
Experimental: (§1) After removal of the culture medium, the BV2 cells were carefully washed with pre-warmed HBSS (Hank’s balanced salt solution) containing 125.0 mM choline chloride, 4.8 mM KCl, 1.2 mM MgSO4, 1.2 mM KH2PO4, 1.3 mM CaCl2, 5.6 mM glucose, and 25.0 mM HEPES (pH 7.4 adjusted with 1 M NaOH). Pre-incubation was done with 500 μL of pre-warmed HBSS at 37 °C for 10 min before adding substrates (250 μL in HBSS) for the uptake experiments.
The ability of compounds 1–15 to inhibit the uptake of a known LAT1 substrate [^14C]-L-leucine was then evaluated by incubating the cells at 37 °C for 5 min in uptake buffer pH 7.4 (250 μL) containing 0.2 µCi/mL of [^14C]-L-leucine, or 2 µCi/mL of [^3H]-L-methionine, [^3H]-L-tryptophan or [^3H]-L-kynurenine (PerkinElmer, Waltham, MA, USA) and 0.1–1000 μM of the studied compound (or HBSS as blank). After incubation, the uptake was stopped by adding 250 µL of ice-cold HBSS, and the cells were washed two times with ice-cold HBSS. The cells were then lysed with 500 μL of NaOH (0.1 M) for 60 min and the lysate was mixed with 3.5 mL of Emulsifier safe cocktail (Ultima Gold, PerkinElmer, Waltham, MA, USA). The radioactivity in the cells was measured by liquid scintillation counting (MicroBeta^2 counter, PerkinElmer Waltham, MA, USA). Half of the maximum inhibitory concentration (IC50) values were calculated by nonlinear regression analysis (fitting the curve to log (concentration) vs. remaining normalized […]).

[2] = biological target: T1, LAT1; experiment: Inhibition type of [14C]-L-Leu uptake (Hanes-Woolf plots) in BV2 cells; assay type: cell-based; conditions: for Vmax of [14C]-L-Leu uptake: 0.010–0.20 µM [14C]-L-Leu in the presence of the compound at its IC50, mean ± SD, n = 3–4; for IC50: Table 2, compound concentration used in the inhibition type study, corresponding to IC50 of [14C]-L-Leu uptake; for Inhibition Type: of [14C]-L-Leu uptake, concluded from Km and Vmax
Experimental: as §1
To evaluate the inhibition type of studied compounds, the BV2 cells were incubated with 0.010–0.20 μM [^14C]-L-leucine together with the studied compound. The concentration of compounds was selected according to the compound-specific IC50 values. The experiment was then carried out as described for the [^14C]-L-leucine uptake above and the radioactivity was measured by liquid scintillation counting. Hanes-Woolf plots were created by setting the ratio of initial substrate concentration to the reaction velocity ([S]/v) against [^14C]-L-leucine concentration (µM). The linear regression was used to calculate Km value (negative value of x-intercept) and Vmax value (1/slope) for [^14C]-L-leucine.

[3] = biological target: T1, LAT1; experiment: Concentration-dependent cellular uptake into BV2 cells, Eadie–Hofstee analysis, Transport Type 1 (LAT1); assay type: cell-based
Experimental: For the concentration-dependent cellular uptake experiments, the BV2 cells on 24-well plates were incubated with studied compounds (1–200 μM) in pre-warmed HBSS buffer (250 μL) at 37 °C for 30 min. The experiment was then carried out as described for the time-dependent uptake above and the concentration of studied compounds in the cell lysate was analyzed by the LC-MS/MS methods described above and the results were normalized to the total protein concentration. The distinct transport mechanisms were separated from the Michaelis-Menten kinetics by using Eadie–Hofstee plot.
(§2) The studied compounds (1–15) were analyzed by using Agilent 1200 Series Rapid Resolution LC System together with an Agilent 6410 Triple Quadrupole Mass Spectrometer equipped with an electrospray ionization source (Agilent Technologies, Santa Clara, CA, USA). The chromatographic separations of analytes were achieved by using a reversed-phase Zobrax SB-C18 column (50 mm × 2.1 mm, 1.8 μm; Agilent Technologies, Santa Clara, CA, USA) by eluting the samples with 0.1% formic acid in water (A) and 0.1% formic in ACN (B). Labetalol and diclofenac were used as internal standards (ISTD) for the prodrugs and parent drugs, respectively. The transitions used for the quantification at the positive ion mode and chromatographic conditions of each compound and their parent drugs are listed in Table S1. The methods of compounds 1–11 have been reported earlier, while the methods of compounds 12–15 are reported herein for the first time.

[4] = biological target: T1, LAT1; design: method as in earlier work; conditions: BV2 cells; probe [14C]-L-Leu; mean ± SD; published earlier; ref [31] or [33]; read-out: IC50 of [14C]-L-Leu uptake; cited from earlier work
[5] = Stability / bioconversion of prodrugs to parent drugs (biological media, 0.1 M NaOH cell lysing); assay type: in vitro ADME; conditions: cell lysate samples for LC-MS/MS (Table S1 footnote)
Text: LAT1-utilizing prodrugs 1–15 (Figure 1) were selected for this study based on their ability to utilize LAT1 expressed in cells used in our previous studies. Therefore, the syntheses of these compounds are not described herein as they have been reported earlier. These compounds include prodrugs of an investigational immunosuppressive agent, perforin inhibitor (1), non-steroidal anti-inflammatory drugs (NSAIDs), ketoprofen (2–4, 14), salicylic acid (8), flurbiprofen (9 and 12), ibuprofen (10 and 13) and naproxen (11 and 15), as well as the polyphenolic antioxidant, ferulic acid (5–7). […] In addition, all NSAID prodrugs (compounds 2–4, 9–15) were prepared from their pure S-enantiomers. Prodrugs of ferulic acid (compounds 5–7) were mixtures of E- and […], which were interconvertible over time. […] Therefore, both prodrug and the released parent drug proportions were quantified and taken into account when calculating concentrations transported into the cells.
1. LC-MS/MS ionization parameters of compounds 1-15
Table S1. Ionization parameters for the LC-MS/MS methods of the studied compounds.
Precursor Product Fragmentor Collision Flow rate Gradient LLOQ
Compound ion ion(s) Voltage (V) Energy (mL/min) (A:B) (nM) […]
perforin inhibitor 1a and therefore, their transitions with a positive ion mode are reported only as KPF or as a prodrug and parent drug in parentheses. […]
drugs (ferulic acid (FA), flurbiprofen (FLB), ibuprofen (IBU), and naproxen (NPX), respectively), whose transitions with a negative ion mode are reported below the studied LAT1 -utilizing compounds i n parentheses.

[6] = tested on: immortalized mouse microglia (BV2); experiment: Time-dependent cellular uptake of compounds into BV2 cells (LC-MS/MS); assay type: cell-based; conditions: 100 µM compound, 1–60 min, mean ± SD, n = 3
Experimental: (§3) For the time-dependent cellular uptake experiments, the BV2 cells on 24-well plates were incubated with studied compounds (100 μM) in a pre-warmed HBSS buffer (250 μL) at 37 °C for 1–60 min. Subsequently, the cells were washed three times with an ice-cold HBSS and lysed with 250 μL of NaOH (0.1 M) for 60 min. The lysates were diluted with acetonitrile (ACN) including the selected internal standard (diclofenac to all compounds) with a ratio of 1:3 and centrifuged at 10,000× g for 10 min. The samples were analyzed by the liquid chromatography-tandem mass spectrometric (LC-MS/MS) methods as described below. The concentrations of each compound in cell lysates were calculated from the standard curve that was prepared by spiking known amounts of compounds to ACN including the selected internal standard and then normalized with protein concentration. The protein concentrations on each plate were determined as a mean of three samples by Bio-Rad Protein Assay, based on the Bradford dye-binding method, using bovine serum albumin (BSA) as a standard protein and measuring the absorbance (595 nm) by multiplate reader (EnVision, Perkin Elmer, Inc., Waltham, MA, USA).
as §2

[7] = as above; assay type: cell-based, mouse; conditions: mouse, BV2 microglia cells, 100 µM compound, 1–60 min, mean ± SD, n = 3, read-out: T½ of cellular uptake
Experimental: as §3, §2

[8] = biological target: T1, LAT1; experiment: Cellular uptake of compounds in the presence of LAT1-inhibitor (KMH-233); assay type: cell-based; conditions: 100 µM compound, 100 µM KMH-233, 30 min, BV2
Experimental: The competitive uptake in the presence of LAT1-inhibitor (KMH-233) was carried out as described above with HBSS buffer solution containing 100 µM of the studied compounds. The cells were pre-incubated with 100 µM LAT1-inhibitor for 10 min and the incubation mixture was removed before adding the studied compound and LAT1-inhibitor on the cells. The competitive uptake (30 min) with the inhibitor was then carried out as the normal uptake described above. The amounts of studied compounds were analyzed by the LC-MS method and calculated from the spiked standard curve and normalized with the protein concentrations.

[9] = biological target: T1, LAT1; experiment: LAT1 function followed between cell passages with [14C]-L-leucine; conditions: BV2 cells, passages 8–15
[10] = probe [3H]-L-Kynu, n = 3–4, read-out: IC50 of [3H]-L-Kynu uptake
[11] = probe [3H]-L-Met, n = 3–4, read-out: IC50 of [3H]-L-Met uptake
[12] = probe [3H]-L-Trp, n = 3–4, read-out: IC50 of [3H]-L-Trp uptake
[13] = 1–200 µM, 30 min, BV2, Eadie–Hofstee, mean ± SD, n = 3

T1 sequence (Q9Z127 whole entry): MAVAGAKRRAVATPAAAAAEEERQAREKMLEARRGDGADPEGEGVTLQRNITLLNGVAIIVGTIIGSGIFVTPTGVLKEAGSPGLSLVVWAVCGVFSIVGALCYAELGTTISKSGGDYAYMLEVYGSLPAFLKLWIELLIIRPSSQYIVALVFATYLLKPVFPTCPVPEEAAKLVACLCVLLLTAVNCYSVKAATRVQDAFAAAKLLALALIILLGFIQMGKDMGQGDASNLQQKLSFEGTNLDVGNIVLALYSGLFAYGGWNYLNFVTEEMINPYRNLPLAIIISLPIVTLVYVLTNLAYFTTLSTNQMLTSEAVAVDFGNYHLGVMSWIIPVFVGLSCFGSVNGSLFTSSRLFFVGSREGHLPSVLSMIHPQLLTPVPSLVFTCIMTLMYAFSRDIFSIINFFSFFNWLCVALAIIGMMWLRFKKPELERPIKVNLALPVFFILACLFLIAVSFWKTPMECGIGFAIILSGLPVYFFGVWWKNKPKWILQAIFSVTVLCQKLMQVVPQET
T1 sequence (P10852 whole entry partner): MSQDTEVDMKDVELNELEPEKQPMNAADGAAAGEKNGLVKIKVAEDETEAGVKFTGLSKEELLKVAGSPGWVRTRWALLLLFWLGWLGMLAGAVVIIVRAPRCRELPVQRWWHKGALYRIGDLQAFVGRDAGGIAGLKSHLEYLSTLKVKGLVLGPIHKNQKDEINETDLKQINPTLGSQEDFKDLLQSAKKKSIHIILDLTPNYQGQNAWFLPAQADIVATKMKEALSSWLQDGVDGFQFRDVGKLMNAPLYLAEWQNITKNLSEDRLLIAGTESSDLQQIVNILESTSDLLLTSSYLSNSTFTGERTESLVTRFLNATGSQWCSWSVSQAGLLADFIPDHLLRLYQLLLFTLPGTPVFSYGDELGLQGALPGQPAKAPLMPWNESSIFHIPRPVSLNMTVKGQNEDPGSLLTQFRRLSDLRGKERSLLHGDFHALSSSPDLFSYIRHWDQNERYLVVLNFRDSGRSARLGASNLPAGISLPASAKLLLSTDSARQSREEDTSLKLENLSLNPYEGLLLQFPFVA

Row | Compound | IC50 [1, 10] | IC50 [1, 11] | IC50 [1, 12] | Vmax of [14C]-L-Leu uptake ([2]; BV2) | IC50 [2] | Inhibition Type ([2]; BV2) | Km [3, 13] | Transport Type 1 (LAT1) Vmax [3, 13] | IC50 [4] | Conversion to parent drug in the analysed samples [5] | Max. cellular uptake [6] | half-life at 100 μM [7] | Cellular uptake in the presence of LAT1-inhibitor [8] | Cellular uptake ([3]; BV2 cells) | Vmax of [14C]-L-leucine uptake [9] | Km ([9]; read-out: Km of [14C]-L-leucine uptake) | Vmax of [14C]-L-Leu uptake (control) ([2]; 0.010–0.20 µM [14C]-L-Leu alone, no compound, BV2) | Km ([2]; 0.010–0.20 µM [14C]-L-Leu alone, no compound, BV2, read-out: Km of [14C]-L-Leu uptake (control))
1 | CC(C)Cc1ccc([C@H](C)C(=O)Oc2cccc(C[C@H](N)C(=O)O)c2)cc1 [Compound 13] | 9.7 ± 1.2 µM | 9.8 ± 1.4 µM | 36.3 ± 1.2 µM | 2.186 ± 0.231 nmol/min/mg | 5 µM | Mixed type | 8.2 ± 1.8 µM | 63 ± 8 pmol/mg/min | 5.3 ± 1.2 µM | partly converted to their parent | 25.90 ± 2.41 nmol/mg of protein | 3.6 ± 1.47 min | inhibited significantly |  |  |  |  | 
2 | C[C@H](C(=O)OCc1ccc(C[C@@H](N)C(=O)O)cc1)c1cccc(C(=O)c2ccccc2)c1 [Compound 14] | 91.5 ± 1.2 µM | 32 ± 1.4 µM | 37.6 ± 1.7 µM | 2.622 ± 0.268 nmol/min/mg | 53 µM | Mixed type |  |  | 52.9 ± 1.3 µM | fully converted into ketoprofen | 10.20 ± 0.61 nmol/mg of protein | 2.2 ± 0.62 min | only reductive trends were seen | highest cellular uptake |  |  |  | 
3 | CC(C)C[C@H](N)C(=O)O [L-Leu (Crtl), L-leucine, reference compound] |  |  |  |  |  |  |  |  |  |  |  |  |  |  | 0.84 ± 0.12 nmol/min/mg protein | 85.8 ± 19.4 µM | 3.403 ± 0.055 nmol/min/mg | 0.115 ± 0.007 µM
